In patent US10336702B2, “Pharmaceutically active compounds” (BERGENBIO ASA, priority 2015, dated 2019):

Experiments:
[1] = target: T1, Akt1 (Homo sapiens, UniProt P31749); assay: Akt activation assay (PDK1-mediated activation, LANCE Ultra crosstide TR-FRET), Akt1; format: biochemical; settings: read-out: Biological Assay 1 IC50 (nM) Akt1
T1 construct: unspecified tag, removed (detagged) (cleaved yes); purchased SignalChem and Proteros (Akt1); Merck Millipore (PDK1) 14-452 (PDK1); none given for Akt1
T1 sequence (P31749 whole entry): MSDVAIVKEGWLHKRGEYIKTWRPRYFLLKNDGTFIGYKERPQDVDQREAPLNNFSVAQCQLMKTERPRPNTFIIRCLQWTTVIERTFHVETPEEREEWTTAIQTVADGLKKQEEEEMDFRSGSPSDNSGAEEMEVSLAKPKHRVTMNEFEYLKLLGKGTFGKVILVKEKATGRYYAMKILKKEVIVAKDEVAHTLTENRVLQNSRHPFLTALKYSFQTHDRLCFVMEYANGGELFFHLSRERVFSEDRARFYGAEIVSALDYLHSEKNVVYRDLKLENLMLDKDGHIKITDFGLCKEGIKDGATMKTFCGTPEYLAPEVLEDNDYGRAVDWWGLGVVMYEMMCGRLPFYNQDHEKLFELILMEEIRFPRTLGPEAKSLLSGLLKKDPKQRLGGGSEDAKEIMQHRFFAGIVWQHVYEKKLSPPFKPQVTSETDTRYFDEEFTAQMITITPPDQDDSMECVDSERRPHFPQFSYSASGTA
In short: (§1)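 TR-FRET read-out (665/615 nm ratio) after Eu-anti-phospho-crosstide antibody, 1 h. Reaction: compound preincubated with Akt isoform, then 5 nM PDK1, lipid vesicles with 0.55 μM PtdIns(3,4,5)P3, 100 μM ATP, 100 nM crosstide, 30 min, EDTA stop. IC50 from 4-parameter equation.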

[2] = target: T2, Akt2 (Homo sapiens, UniProt P31751); assay: Akt activation assay (PDK1-mediated activation, LANCE Ultra crosstide TR-FRET), Akt2; format: biochemical; settings: read-out: Biological Assay 1 IC50 (nM) Akt2
T2 construct: unspecified tag, removed (detagged) (cleaved yes); purchased SignalChem and Proteros (Akt2); Merck Millipore (PDK1) 14-452 (PDK1); none given for Akt2
T2 sequence (P31751 whole entry): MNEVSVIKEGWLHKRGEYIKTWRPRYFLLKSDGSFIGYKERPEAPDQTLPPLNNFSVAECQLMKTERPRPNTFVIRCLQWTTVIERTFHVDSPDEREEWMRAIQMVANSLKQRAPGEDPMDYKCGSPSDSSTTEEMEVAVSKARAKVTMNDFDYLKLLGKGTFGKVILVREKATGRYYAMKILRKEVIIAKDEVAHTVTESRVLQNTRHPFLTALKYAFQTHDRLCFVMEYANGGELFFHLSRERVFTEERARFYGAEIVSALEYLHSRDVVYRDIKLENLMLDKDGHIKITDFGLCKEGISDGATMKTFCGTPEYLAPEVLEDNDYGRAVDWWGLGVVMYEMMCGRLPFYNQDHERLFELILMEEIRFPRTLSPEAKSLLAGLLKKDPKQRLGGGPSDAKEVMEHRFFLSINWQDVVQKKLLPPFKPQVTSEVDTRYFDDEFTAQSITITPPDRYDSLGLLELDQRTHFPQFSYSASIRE
In short: as §1

[3] = target: T3, Akt3 (Homo sapiens, UniProt Q9Y243); assay: Akt activation assay (PDK1-mediated activation, LANCE Ultra crosstide TR-FRET), Akt3; format: biochemical; settings: read-out: Biological Assay 1 IC50 (nM) Akt3
T3 construct: unspecified tag, removed (detagged) (cleaved yes); purchased SignalChem and Proteros (Akt3); Merck Millipore (PDK1) 14-452 (PDK1); none given for Akt3
T3 sequence (Q9Y243 whole entry): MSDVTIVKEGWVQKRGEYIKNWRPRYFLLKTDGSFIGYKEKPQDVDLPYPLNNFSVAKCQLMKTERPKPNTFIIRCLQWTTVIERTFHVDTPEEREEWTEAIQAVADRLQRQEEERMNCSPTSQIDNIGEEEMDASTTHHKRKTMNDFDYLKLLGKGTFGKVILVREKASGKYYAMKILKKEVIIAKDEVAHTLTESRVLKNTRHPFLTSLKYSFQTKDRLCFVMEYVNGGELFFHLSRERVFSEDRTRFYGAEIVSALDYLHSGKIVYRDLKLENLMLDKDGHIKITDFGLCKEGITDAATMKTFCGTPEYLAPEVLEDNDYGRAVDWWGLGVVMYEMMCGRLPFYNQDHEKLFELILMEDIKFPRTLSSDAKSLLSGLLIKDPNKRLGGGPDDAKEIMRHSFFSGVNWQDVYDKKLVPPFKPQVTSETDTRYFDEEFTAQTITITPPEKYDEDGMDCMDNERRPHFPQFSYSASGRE
In short: as §1

[4] = target: T4, p-Akt1 in LNCaP cells (Homo sapiens, UniProt P31749); assay: Phospho-Akt cellular SureFire assay, p-Akt1 in LNCaP cells; format: cell-based; settings: read-out: Biological Assay 2 IC50 (nM) Akt1 LNCaP
T4 construct: SureFire assays to detect cellular p-Akt1, p-Akt2 and p-Akt3 levels in WM115 cells (Akt2/3) and LNCaP cells (Akt1); endogenous in cells; host or cells: LNCaP (ECACC 89110211)
T4 sequence (P31749 whole entry): as the sequence (P31749 whole entry) above
In short: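 Phospho-Thr308 Akt1 detected by AlphaScreen SureFire proximity beads in LNCaP lysates after 15 min compound treatment at 37 °C in 0.1% FBS medium, unstimulated, 0.3% DMSO. Cells plated at 5×10^4/well overnight; IC50 from a 4-parameter equation.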

[5] = target: T5, p-Akt2 in WM115 cells (Homo sapiens, UniProt P31751); assay: Phospho-Akt cellular SureFire assay, p-Akt2 in WM115 cells; format: cell-based; settings: insulin stimulated, read-out: Biological Assay 2 IC50 (nM) Akt2 WM115
T5 construct: SureFire assays to detect cellular p-Akt1, p-Akt2 and p-Akt3 levels in WM115 cells (Akt2/3) and LNCaP cells (Akt1); endogenous in cells; host or cells: WM115 (ECACC 91061232), insulin-stimulated
T5 sequence (P31751 whole entry): as the sequence (P31751 whole entry) above
In short: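 Readout is a bead-proximity SureFire assay pairing a pThr308 Akt antibody with a total Akt2 antibody, lysate and beads incubated 2 h plus 2 h at room temperature in the dark. Before lysis, serum-starved WM115 cells received 100 nM insulin (10 min), then test compound (15 min, 0.3% DMSO); IC50 by 4-parameter equation.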

[6] = target: T6, p-Akt3 in WM115 cells (Homo sapiens, UniProt Q9Y243); assay: Phospho-Akt cellular SureFire assay, p-Akt3 in WM115 cells; format: cell-based; settings: insulin stimulated, read-out: Biological Assay 2 IC50 (nM) Akt3 WM115
T6 construct: SureFire assays to detect cellular p-Akt1, p-Akt2 and p-Akt3 levels in WM115 cells (Akt2/3) and LNCaP cells (Akt1); endogenous in cells; host or cells: WM115 (ECACC 91061232), insulin-stimulated
T6 sequence (Q9Y243 whole entry): as the sequence (Q9Y243 whole entry) above
In short: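 pThr308-Akt3 in lysates was quantified by bead-proximity SureFire detection, pairing a phospho-specific antibody with a total Akt3 antibody. Before lysis, WM115 cells in 0.1% FBS medium were treated for 15 min at 37 °C with compound (final DMSO 0.3%), following a 10 min stimulation with 100 nM insulin. IC50 was obtained by 4-parameter fitting.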

IC50 [1] | IC50 [2] | IC50 [3] | IC50 [4] | IC50 [5] | IC50 [6] | Compound
260 nM | 350 nM | 290 nM | 760 nM | 810 nM | 48 nM | C[C@]1(O)C[C@@](N)(c2ccc(-c3ncc(NC(=O)C[C@H]4CC[C@H](N5CCOCC5)CC4)cc3-c3ccccc3)cc2)C1 [Example A15, N-(6-(4-(trans-1-amino-3-hydroxy-3-methylcyclobutyl)phenyl)-5-phenylpyridin-3-yl)-2-(trans-4-morpholinocyclohexyl)acetamide]
> 30000 nM | > 30000 nM | 1100 nM | > 30000 nM | > 30000 nM | 1700 nM | CC(=O)N(C)[C@H]1CC[C@H](CC(=O)Nc2cnc(-c3ccc(C(C)(C)N)nc3)c(-c3ccccc3)c2)CC1 [Example 43, N-(6′-(2-aminopropan-2-yl)-3-phenyl-[2,3′-bipyridin]-5-yl)-2-(trans-4-(N-methylacetamido)cyclohexyl)acetamide]
> 21000 nM | 880 nM | 36 nM | 10000 nM | 2400 nM | 27 nM | CC(=O)N(C)[C@H]1CC[C@H](CC(=O)Nc2cnc(-c3ccc(C4(N)CC(C)(O)C4)c(F)c3)c(-c3ccccc3)c2)CC1 (stereo partly drawn) [Example 124, N-(6-(4-(trans-1-amino-3-hydroxy-3-methylcyclobutyl)-3-fluorophenyl)-5-phenylpyridin-3-yl)-2-(trans-4-(N-methylacetamido)cyclohexyl)acetamide]
780 nM | 110 nM | 15 nM | 2700 nM | 1800 nM | 30 nM | CC(=O)N(C)[C@H]1CC[C@H](CC(=O)Nc2cnc(-c3ccc([C@]4(N)C[C@](C)(O)C4)cc3)c(-c3ccccc3)c2)CC1 [Example 1, N-(6-(4-(trans-1-amino-3-hydroxy-3-methylcyclobutyl)phenyl)-5-phenylpyridin-3-yl)-2-(trans-4-(N-methylacetamido)cyclohexyl)acetamide]
> 30000 nM | 16000 nM | 4500 nM | > 20000 nM | 24000 nM | 590 nM | CC(=O)N[C@H]1CC[C@H](CC(=O)Nc2cnc(-c3ccc([C@H](N)C(F)F)cc3)c(-c3ccccc3)c2)CC1 [Example A12, 2-(trans-4-acetamidocyclohexyl)-N-(6-(4-((S)-1-amino-2,2-difluoroethyl)phenyl)-5-phenylpyridin-3-yl)acetamide]
7900 nM | 1100 nM | 62 nM | > 30000 nM | 5100 nM | 100 nM | COC(=O)N(C)[C@H]1CC[C@H](CC(=O)Nc2cnc(-c3ccc([C@]4(N)C[C@H](F)C4)cc3)c(-c3ccccc3)c2)CC1 [Example 77, Methyl (trans-4-(2-((6-(4-(trans-1-amino-3-fluorocyclobutyl)phenyl)-5-phenylpyridin-3-yl)amino)-2-oxoethyl)cyclohexyl)(methyl)carbamate]
2600 nM | 53 nM | 4 nM | 1900 nM | 320 nM | 5 nM | C[C@]1(O)C[C@@](N)(c2ccc(-c3nnc(NC(=O)C[C@H]4CC[C@H](N5CCCCC5=O)CC4)cc3-c3ccccc3)cc2)C1 [Example A98, N-(6-(4-(trans-1-amino-3-hydroxy-3-methylcyclobutyl)phenyl)-5-phenylpyridazin-3-yl)-2-(trans-4-(2-oxopiperidin-1-yl)cyclohexyl)acetamide]
> 30000 nM | > 30000 nM | 1000 nM | > 30000 nM | > 30000 nM | 140 nM | CC(=O)N(C)[C@H]1CC[C@H](CC(=O)Nc2cc(-c3ccccn3)c(-c3ccc(C4(N)CCC4)cc3)cn2)CC1 [Example 76, N-(5′-(4-(1-aminocyclobutyl)phenyl)-[2,4′-bipyridin]-2′-yl)-2-(trans-4-(N-methylacetamido)cyclohexyl)acetamide]
> 18000 nM | 370 nM | 110 nM | 5500 nM | 810 nM | 93 nM | COCCN(C)[C@H]1CC[C@H](CC(=O)Nc2cc(-c3ccccc3)c(-c3ccc([C@]4(N)C[C@](C)(O)C4)cc3)cn2)CC1 [Example 128, N-(5-(4-(trans-1-amino-3-hydroxy-3-methylcyclobutyl)phenyl)-4-phenylpyridin-2-yl)-2-(trans-4-((2-methoxyethyl)(methyl)amino)cyclohexyl)acetamide]
3500 nM | 53 nM | 5 nM | 880 nM | 470 nM | 7 nM | CCC(=O)N(C)[C@H]1CC[C@H](CC(=O)Nc2cnc(-c3ccc([C@]4(N)C[C@](C)(O)C4)cc3)c(-c3ccccc3)c2)CC1 [Example 98, N-(4-(2-((6-(4-(trans-1-amino-3-hydroxy-3-methylcyclobutyl)phenyl)-5-phenylpyridin-3-yl)amino)-2-oxoethyl)cyclohexyl)-N-methylpropionamide]
> 30000 nM | 710 nM | 50 nM | > 30000 nM | 8800 nM | 290 nM | COC(=O)N(C)[C@H]1CC[C@H](CC(=O)Nc2cc(-c3ccccc3)c(-c3ccc(C4(N)CC(F)(F)C4)cc3)nn2)CC1 [Example 60, Methyl (trans-4-(2-((6-(4-(1-amino-3,3-difluorocyclobutyl)phenyl)-5-phenylpyridazin-3-yl)amino)-2-oxoethyl)cyclohexyl)(methyl)carbamate]
2400 nM | 74 nM | 4 nM | 2400 nM | 710 nM | 10 nM | CCOC(=O)N(C)[C@H]1CC[C@H](CC(=O)Nc2cc(-c3ccccc3)c(-c3ccc([C@]4(N)C[C@](C)(O)C4)cc3)nn2)CC1 [Example A80, Ethyl (trans-4-(2-((6-(4-(trans-1-amino-3-hydroxy-3-methylcyclobutyl)phenyl)-5-phenylpyridazin-3-yl)amino)-2-oxoethyl)cyclohexyl)(methyl)carbamate]
12000 nM | 140 nM | 6 nM | 1400 nM | 320 nM | 13 nM | CN(C(=O)C1CC1)[C@H]1CC[C@H](CC(=O)Nc2cc(-c3ccccc3)c(-c3ccc([C@]4(N)C[C@](C)(O)C4)cc3)cn2)CC1 [Example A75, N-(trans-4-(2-((5-(4-(trans-1-amino-3-hydroxy-3-methylcyclobutyl)phenyl)-4-phenylpyridin-2-yl)amino)-2-oxoethyl)cyclohexyl)-N-methylcyclopropanecarboxamide]
> 30000 nM | 14000 nM | 170 nM | > 30000 nM | > 30000 nM | 230 nM | CC(=O)N(C)[C@H]1CC[C@H](CC(=O)Nc2cc(-c3ccsc3)c(-c3ccc(C4(N)CC4)c(F)c3)nn2)CC1 [Example 92, N-(6-(4-(1-aminocyclopropyl)-3-fluorophenyl)-5-(thiophen-3-yl)pyridazin-3-yl)-2-(trans-4-(N-methylacetamido)cyclohexyl)acetamide]
> 25000 nM | 2900 nM | 31 nM | > 30000 nM | 2900 nM | 42 nM | CC(=O)N(C)[C@H]1CC[C@H](CC(=O)Nc2cc(-c3ccccc3)c(-c3ccc([C@]4(N)C[C@](C)(O)C4)c(F)c3)nn2)CC1 [Example 127, N-(6-(4-(trans-1-amino-3-hydroxy-3-methylcyclobutyl)-3-fluorophenyl)-5-phenylpyridazin-3-yl)-2-(trans-4-(N-methylacetamido)cyclohexyl)acetamide]
